Laboratory results published in patent EP0539204B1 (priority 1991, dated 1993).
≈ marks a conversion by molar mass, not a printed value.

Columns and labels:
[1] = tested on: influenza B/Victoria/102/85; test: microbe, parasite or virus in culture; format: cell-based; conditions: for IC50: Influenza B virus, MDCK, 72 h, read-out: I50 Plaque Assay Flu B
[2] = tested on: influenza A/Singapore/1/57 (H2N2); test: microbe, parasite or virus in culture; format: cell-based; conditions: for I50 Plaque Assay Flu A: reduction of viral plaque formation in MDCK cells, 3 days at 37°C; for IC50: Influenza A virus, H2N2, MDCK, 72 h, read-out: I50 Plaque Assay Flu A
[3] = target: N2 influenza neuraminidase (Influenza A virus, UniProt Q91MA2); test: biochemical; format: biochemical, influenza virus (virion X31); conditions: for NA1: pH 6.5
Chain of N2 influenza neuraminidase (Q91MA2 whole entry, looked up): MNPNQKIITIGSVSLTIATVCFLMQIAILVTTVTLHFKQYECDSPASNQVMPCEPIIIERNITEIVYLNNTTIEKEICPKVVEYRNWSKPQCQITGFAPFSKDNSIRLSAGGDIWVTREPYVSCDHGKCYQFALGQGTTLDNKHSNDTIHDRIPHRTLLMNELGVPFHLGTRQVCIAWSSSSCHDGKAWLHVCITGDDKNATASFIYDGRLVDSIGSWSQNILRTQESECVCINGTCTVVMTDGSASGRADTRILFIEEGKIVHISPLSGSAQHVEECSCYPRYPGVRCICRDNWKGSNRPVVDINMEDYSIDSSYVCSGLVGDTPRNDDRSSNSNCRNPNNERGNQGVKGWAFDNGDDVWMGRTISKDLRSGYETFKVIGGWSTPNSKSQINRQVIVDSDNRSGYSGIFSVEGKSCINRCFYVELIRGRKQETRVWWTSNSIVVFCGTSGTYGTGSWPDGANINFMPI

For “5-(Acetylamino)-4-[[amino(hydroxyimino)methyl]amino]-2,6-anhydro-3,4,5-trideoxy-D-glycero-D-galacto-non-2-enonic acid [Example 2]”, the “I50 Plaque Assay Flu B” value [1] was less than 0.1 µg/mL, the “I50 Plaque Assay Flu A” value [2] was 0.1 µg/mL and the NA1 [3] was 0.6 µg/mL.

“5-(Acetylamino)-4-[[amino(aminoimino)methyl]amino]-2,6-anhydro-3,4,5-trideoxy-D-glycero-D-galacto-non-2-enonic acid [Example 1]” was tested, and the “I50 Plaque Assay Flu B” value [1] was 3.0 µg/mL, the “I50 Plaque Assay Flu A” value [2] was 2.9 µg/mL and the NA1 [3] was 1.3 µg/mL.

Work on CCOC(=O)NC(=N)N[C@H]1C=C(C(=O)O)O[C@@H]([C@H](O)[C@H](O)CO)[C@@H]1NC(C)=O [Example 5, 5-(Acetylamino)-4-[[amino(ethoxycarbonylimino)methyl]amino]-2,6-anhydro-3,4,5-trideoxy-D-glycero-D-galacto-non-2-enonic acid] yielded an IC50 [1] of 0.6 µg/mL (≈ 1.48 µM), an IC50 [2] of 1.7 µg/mL (≈ 4.2 µM) and an IC50 [3] of 17.1 µM.

CC(=O)N[C@H]1[C@H]([C@H](O)[C@H](O)CO)OC(C(=O)O)=C[C@@H]1NC(=N)N[N+](=O)[O-] [Example 4, 5-(Acetylamino)-4-[[amino(nitroimino)methyl]amino]-2,6-anhydro-3,4,5-trideoxy-D-glycero-D-galacto-non-2-enonic acid] showed an IC50 [1] of 24 µg/mL (≈ 63.6 µM), an IC50 [2] of 30 µg/mL (≈ 79.5 µM) and an IC50 [3] of 2.65 µM.

CNC(=N)N[C@H]1C=C(C(=O)O)O[C@@H]([C@H](O)[C@H](O)CO)[C@@H]1NC(C)=O [Example 3, 5-(Acetylamino)-4-[[amino(methylimino)methyl]amino]-2,6-anhydro-3,4,5-trideoxy-D-glycero-D-galacto-non-2-enonic acid] gave an IC50 [2] of 3 µg/mL (≈ 8.66 µM) and an IC50 [3] of 12.1 µM.
